Earlier results on one molecule are cited in patent publication US20250381182A1, “ALDH-2 INHIBITOR COMPOUNDS AND METHODS OF USE” (Amygdala Neurosciences, Inc., priority 2024, published 2025).

Each structure is given as a SMILES string.

The conditions of the series: O'Malley et al. 2021, Phase 2 study of ANS-6637; cited from earlier work.

As for `O=C(NCc1ccc(-c2cc[nH]c(=O)c2)cc1)c1c(Cl)cccc1Cl` [2,6-dichloro-N-[4-(2-oxo-1,2-dihydro-pyridin-4-yl)-benzyl]-benzamide], the hepatotoxicity in humans result was “high levels of hepatotoxicity”.
